According to patent US10383880B2 (Reset Therapeutics, Inc., priority 2012, dated 2019):
pEC50: −log10 of the molar value.

Tested on: Per2-dLuc U2OS reporter cells
Experiment: Per2 assay for evaluating the potency of test compounds (high-throughput circadian assay)
Type: cell-based
Details: Homo sapiens, U2OS, stable U2OS reporter cells harboring Per2-dLuc; luminescence monitored over 4-5 days at 35° C.
Description: Compounds were screened by using a high-throughput circadian assay system as previously described in Zhang, E. E. et al. Cell, 2009, 139, 199-210. In brief, stable U2OS reporter cells harboring Per2-dLuc were plated at a density of 8,000 cells/well in Corning 96-well, solid white, flat bottom, TC-treated microplates (Corning®), and incubated for 24 hours at 37° C. in the presence of 5% CO2. The cells were then synchronized by serum shock by media exchange to a minimal explant media (10 mM HEPES (pH 7.0), 2% B27, 1×PSG (Invitrogen®), and 1.0 mM beetle luciferin (Promega®)) followed by the addition of the compounds of formula I dissolved in dimethylsulfoxide (0.5% final dimethylsulfoxide concentration). Gene expression was monitored by measuring luminescence (TecanR M200) over 4-5 days at 35° C. The period, amplitude, and phase of the associated circadian rhythms were determined using Multicycle™ software (Actimetrics, Inc). EC50 values of the compounds of formula I were calculated using Graphpad™ (Prism®).

Compound	pEC50
CC(C)N(CC(C)(O)Cn1c2ccc(F)cc2c2cc(F)ccc21)S(C)(=O)=O (stereo not drawn) [Compound 150, N-(3-(3,6-Difluoro-9H-carbazol-9-yl)-2-hydroxy-2-methylpropyl)-N-isopropylmethanesulfonamide]	5.30
CC1CN(CC(O)Cn2c3ccc(F)cc3c3cc(F)ccc32)S(=O)(=O)C1 (stereo not drawn) [Compound 194, 2-(3-(3,6-Difluoro-9H-carbazol-9-yl)-2-hydroxypropyl)-4-methylisothiazolidine-1,1-dioxide]	7.11
O=S(=O)(C1CCCCC1)N(Cc1ccco1)CC(O)Cn1c2ccccc2c2ccccc21 (stereo not drawn) [Compound 84, N-(3-(9H-Carbazol-9-yl)-2-hydroxypropyl)-N-(furan-2-ylmethyl)cyclohexanesulfonamide]	6.05
CN1CCCN(CC(O)Cn2c3ccc(F)cc3c3cc(F)ccc32)S1(=O)=O (stereo not drawn) [Compound 169, 2-(3-(3,6-Difluoro-9H-carbazol-9-yl)-2-hydroxypropyl)-6-methyl-1,2,6-thiadiazinane-1,1-dioxide]	6.30
O=S1(=O)c2ccccc2CN1CC(O)Cn1c2ccccc2c2ccccc21 (stereo not drawn) [Compound 34, N-(3-(9H-Carbazol-9-yl)-2-hydroxypropyl)-2,3-dihydrobenzo[d]isothiazole 1,1-dioxide]	7.51
CS(=O)(=O)N(CC(O)Cn1c2ccccc2c2ccccc21)c1ccc(Cl)cc1 (stereo not drawn) [Compound 22, N-(3-(9H-Carbazol-9-yl)-2-hydroxypropyl)-N-(4-chlorophenyl)methanesulfonamide]	6.29
CS(=O)(=O)N(Cc1ccco1)CC(O)Cn1c2ccccc2c2c(F)cccc21 (stereo not drawn) [Compound 239, N-(3-(4-Fluoro-9H-carbazol-9-yl)-2-hydroxy-propyl)-N-(furan-2-yl-methyl)methane-sulfonamide]	5.80
CS(=O)(=O)N(CC(O)Cn1c2ccc(F)cc2c2cc(F)ccc21)c1ccc(OC(F)F)cc1 (stereo not drawn) [Compound 206, N-(3-(3,6-Difluoro-9H-carbazol-9-yl)-2-hydroxypropyl)-N-(4-(difluoromethoxy)phenyl)methanesulfonamide]	5.55
CN(CC(O)Cn1c2ccc(F)cc2c2c(F)cccc21)S(C)(=O)=O (stereo not drawn) [Compound 110, N-(3-(3,5-Difluoro-9H-carbazol-9-yl)-2-hydroxypropyl)-N-methylmethanesulfonamide]	5.44
O=S1(=O)N(CC(O)Cn2c3ccc(F)cc3c3cc(F)ccc32)CCC1(F)F (stereo not drawn) [Compound 185, 2-(3-(3,6-Difluoro-9H-carbazol-9-yl)-2-hydroxypropyl)-5,5-difluoroisothiazolidine-1,1-dioxide]	7.35
CC1(N(CC(O)Cn2c3ccc(F)cc3c3cc(F)ccc32)S(C)(=O)=O)CCC1 (stereo not drawn) [Compound 186, N-(3-(3,6-Difluoro-9H-carbazol-9-yl)-2-hydroxypropyl)-N-(1-methylcyclobutyl)methanesulfonamide]	7.08
O=S1(=O)CCCN1C[C@H](O)Cn1c2ccccc2c2ccccc21 [Compound 40, (R)-N-(3-(9H-Carbazol-9-yl)-2-hydroxypropyl)isothiazolidine 1,1-dioxide]	6.75
O=S(=O)(c1cn[nH]c1)N(Cc1ccco1)CC(O)Cn1c2ccccc2c2ccccc21 (stereo not drawn) [Compound 5, N-(3-(9H-Carbazol-9-yl)-2-hydroxypropyl)-N-(furan-2-ylmethyl)-1H-pyrazole-4-sulfonamide]	5.09
CS(=O)(=O)NCC(O)Cn1c2cc(F)ccc2c2ccc(F)cc21 (stereo not drawn) [Compound 162, N-(3-(2,7-Difluoro-9H-carbazol-9-yl)-2-hydroxypropyl)methanesulfonamide]	5.70
CS(=O)(=O)N(CC(O)Cn1c2ccc(F)cc2c2cc(F)ccc21)C1CC1 (stereo not drawn) [Compound 118, N-Cyclopropyl-N-(3-(3,6-difluoro-9H-carbazol-9-yl)-2-hydroxypropyl)methanesulfonamide]	7.09
CS(=O)(=O)N(CC(O)Cn1c2ccccc2c2ccccc21)c1cccc(C(N)=O)c1 (stereo not drawn) [Compound 74, 3-(N-(3-(9H-Carbazol-9-yl)-2-hydroxypropyl)methylsulfonamido)benzamide]	5.12
COCCS(=O)(=O)N(Cc1ccco1)CC(O)Cn1c2ccccc2c2ccccc21 (stereo not drawn) [Compound 11, N-(3-(9H-Carbazol-9-yl)-2-hydroxypropyl)-N-(furan-2-ylmethyl)-2-methoxyethanesulfonamide]	5.75
CS(=O)(=O)N(CC(O)Cn1c2ccccc2c2ccccc21)c1ccc(C#N)cc1 (stereo not drawn) [Compound 80, N-(3-(9H-Carbazol-9-yl)-2-hydroxypropyl)-N-(4-cyanophenyl)methanesulfonamide]	5.37
CCN(CC(O)Cn1c2ccc(F)cc2c2cc(F)ccc21)S(C)(=O)=O (stereo not drawn) [Compound 156, N-(3-(3,6-ifluoro-9H-carbazol-9-yl)-2-hydroxypropyl)-N-ethylmethanesulfonamide]	6.33
CC(O)(CN(C1CCC1)S(C)(=O)=O)Cn1c2ccc(F)cc2c2cc(F)ccc21 (stereo not drawn) [Compound 149, N-Cyclobutyl-N-(3-(3,6-difluoro-9H-carbazol-9-yl)-2-hydroxy-2-methylpropyl)methanesulfonamide]	5.12

Compound	pEC50
CC(O)(CN1CCN(C2CCC2)S1(=O)=O)Cn1c2ccc(F)cc2c2cc(F)ccc21 (stereo not drawn) [Compound 235]	5.19
CS(=O)(=O)N(Cc1ccc(F)cc1)CC(O)Cn1c2ccccc2c2ccccc21 (stereo not drawn) [Compound 60, N-(3-(9H-Carbazol-9-yl)-2-hydroxypropyl)-N-(4-fluorobenzyl)methanesulfonamide]	5.91
CS(=O)(=O)N1CCCCC1C(O)Cn1c2ccccc2c2ccccc21 (stereo not drawn) [Compound 242, 2-(9H-Carbazol-9-yl)-1-(1-(methylsulfonyl)-piperidin-2-yl)ethanol]	6.31
CS(=O)(=O)N(Cc1ccco1)CC(O)Cn1c2ccccc2c2cc(F)ccc21 (stereo not drawn) [Compound 238, N-(3-(3-Fluoro-9H-carbazol-9-yl)-2-hydroxy-propyl)-N-(furan-2-yl-methyl)methane-sulfonanide]	6.27
CCCOc1ccc(N(CC(O)Cn2c3ccc(F)cc3c3cc(F)ccc32)S(C)(=O)=O)cc1 (stereo not drawn) [Compound 203, N-(3-(3,6-Difluoro-9H-carbazol-9-yl)-2-hydroxypropyl)-N-(4-propoxyphenyl)methanesulfonamide]	5.75
O=S1(=O)N(CC(O)Cn2c3ccc(F)cc3c3cc(F)ccc32)CCN1C1CCCC1 (stereo not drawn) [Compound 231]	5.82
Cc1ccc(N(CC(O)Cn2c3ccccc3c3ccccc32)S(C)(=O)=O)cc1 (stereo not drawn) [Compound 25, N-(3-(9H-Carbazol-9-yl)-2-hydroxypropyl)-N-p-tolylmethanesulfonamide]	6.77
CCCN(CC(O)Cn1c2cc(F)ccc2c2ccc(F)cc21)S(C)(=O)=O (stereo not drawn) [Compound 157, N-(3-(2,7-Difluoro-9H-carbazol-9-yl)-2-hydroxypropyl)-N-propylmethanesulfonamide]	6.05
O=S(=O)(C1CC1)N(Cc1ccco1)CC(O)Cn1c2ccccc2c2ccccc21 (stereo not drawn) [Compound 16, N-(3-(9H-Carbazol-9-yl)-2-hydroxypropyl)-N-(furan-2-ylmethyl)cyclopropanesulfonamide]	5.78
CS(=O)(=O)N(CC(O)Cn1c2ccccc2c2ccccc21)c1ccon1 (stereo not drawn) [Compound 81, N-(3-(9H-Carbazol-9-yl)-2-hydroxypropyl)-N-(isoxazol-3-yl)methanesulfonamide]	6.02
CN1CCCN(CC(C)(O)Cn2c3ccc(F)cc3c3cc(F)ccc32)S1(=O)=O (stereo not drawn) [Compound 170, 2-(3-(3,6-Difluoro-9H-carbazol-9-yl)-2-hydroxy-2-methylpropyl)-6-methyl-1,2,6-thiadiazinane-1,1-dioxide]	5.90
CC1(C)CC1N(CC(O)Cn1c2ccccc2c2ccccc21)S(C)(=O)=O (stereo not drawn) [Compound 132, N-(3-(9H-Carbazol-9-yl)-2-hydroxypropyl)-N-(2,2-dimethylcyclopropyl)methanesulfonamide]	6.46
CS(=O)(=O)NCC(O)Cn1c2ccccc2c2ccccc21 (stereo not drawn) [Compound 113, N-(3-(9H-Carbazol-9-yl)-2-hydroxypropyl)methanesulfonamide]	6.91
O=S(=O)(CCC(F)(F)F)N(Cc1ccco1)CC(O)Cn1c2ccccc2c2ccccc21 (stereo not drawn) [Compound 6, N-(3-(9H-Carbazol-9-yl)-2-hydroxypropyl)-3,3,3-trifluoro-N-(furan-2-ylmethyl)propane-1-sulfonamide]	6.02
COc1ccc(N(CC(O)Cn2c3ccccc3c3ccccc32)S(C)(=O)=O)cc1 (stereo not drawn) [Compound 21, N-(3-(9H-Carbazol-9-yl)-2-hydroxypropyl)-N-(4-methoxyphenyl)methanesulfonamide]	6.36
CC(C)(C(O)Cn1c2ccccc2c2ccccc21)N1CCCS1(=O)=O (stereo not drawn) [Compound 243, 2-(4-(9H-Carbazol-9-yl)-3-hydroxy-2-methylbutan-2-yl)-isothiazolidine-1,1-dioxide]	7.38
O=S(=O)(CC1CCOC1)N(Cc1ccco1)CC(O)Cn1c2ccccc2c2ccccc21 (stereo not drawn) [Compound 17, N-(3-(9H-Carbazol-9-yl)-2-hydroxypropyl)-N-(furan-2-ylmethyl)-1-(tetrahydrofuran-3-yl)methanesulfonamide]	5.60
COC(=O)N1CCC(N(CC(O)Cn2c3ccccc3c3ccccc32)S(C)(=O)=O)CC1 (stereo not drawn) [Compound 129, Methyl 4-(N-(3-(9H-carbazol-9-yl)-2-hydroxypropyl)methylsulfonamido)piperidine-1-carboxylate]	6.41
CC(C)N(CC(O)Cn1c2ccc(F)cc2c2cc(F)ccc21)S(C)(=O)=O (stereo not drawn) [Compound 117, N-(3-(3,6-Difluoro-9H-carbazol-9-yl)-2-hydroxypropyl)-N-isopropylmethanesulfonamide]	6.90
